Data as given in patent US8440612B2, “Controlling giardiosis” (Bayer Intellectual Property GmbH, priority 2008, dated 2013).
Several values for one entry are separate records, joined by “and”; a condition that tells them apart may be missing. Equal values may be shown once.

Legend:
Giardia duodenalis [1] = test: Giardia cyst excretion in infected Beagle puppies, oral dose on three successive days (Biological Example 2); type: in vivo
Procedure: (§1) Method: The quantitative determination of the cyst excretion was performed using a modified version of Hewlett (18): 4 g faeces were dissolved in 100 ml of water, sieved and allowed to sediment. The sediment was applied to a 1 M sucrose gradient (specific gravity 1.13), and the cysts, which were concentrated at the sucrose/water boundary layer after the centrifugation were pipetted off. After a wash step followed by centrifugation, the cysts in the pellet were counted. To this end, an aliquot of the pellet was counted under the microscope, and the number of cysts per g faeces was calculated.
Beagle puppies aged 11-15 weeks which had at least 2 weeks to settle in the animal centre before being infected were infected orally with 50 000 Giardia duodenalis cysts before the beginning of the study. The cysts for the infection were obtained with the aid of a sucrose gradient from the faeces of dogs which excreted Giardia cysts and stored at 4 degrees centigrade in Bacto-Casitone medium for no longer than 2 weeks. 18 puppies which excreted Giardia cysts were included in the study and kept in individual cages in order to collect the daily total faeces. The quantitative determination of the cyst excretion was performed as an […], with the modification that the aliquot of the pellet was counted under the microscope with the aid of a Fuchs-Rosenthal hematocytometer. The quantitative determination of the cyst excretion was performed for 4 days before the treatment (day −3 to 0), and the puppies were divided randomly into three groups, taking into consideration the cyst excretion. […] The 6 dogs of the control group remained untreated. The quantitative determination of the cyst excretion was continued from day 1 to day 8 after the treatment.

Giardia duodenalis [2] = test: Giardia cyst excretion in infected Beagle puppies, single oral dose (Biological Example 1); type: in vivo
From the text: Beagle puppies aged 10-11 weeks which had 11 days to settle in the animal centre before being infected were infected orally with 50 000 Giardia duodenalis cysts. The cysts for the infection were obtained with the aid of a sucrose gradient from the faeces of dogs which excreted Giardia cysts and stored at 4 degrees centigrade in Bacto-Casitone medium for no longer than 2 weeks. From day 10 after the infection, the puppies were kept in individual cages in order to collect the daily total faeces for each individual. The quantitative determination of the cyst excretion was performed in the 4 days prior to treatment (day −3 to 0), and the puppies were divided randomly into two groups, taking into consideration the cyst excretion. […] The quantitative determination of the cyst excretion was continued from day 1 to day 8 after the treatment.
Results: The activity was calculated using the following formula:
as §1

CC1CS(=O)(=O)CCN1N=Cc1ccc([N+](=O)[O-])o1 (stereo not shown) [nifurtimox]
Activity (Giardia duodenalis [1]; calculated activity on cyst excretion versus infected untreated control, day 3 to 8, 50 mg/kg oral on days 0, 1 and 2, 50 mg/kg): 98.6%
Σ Giardia cyst excretion D0 (Giardia duodenalis [1]; group line Σ (6 dogs), D0, day of treatment, 50 mg/kg oral on days D0, D1 and D2): 61098 cysts per g faeces
Σ Giardia cyst excretion D1 (Giardia duodenalis [1]; group line Σ (6 dogs), D1, day of treatment, 50 mg/kg oral on days D0, D1 and D2): 872 cysts per g faeces
Σ Giardia cyst excretion D2 (Giardia duodenalis [1]; group line Σ (6 dogs), D2, day of treatment, 50 mg/kg oral on days D0, D1 and D2): 211 cysts per g faeces
Σ Giardia cyst excretion D3 (Giardia duodenalis [1]; group line Σ (6 dogs), D3, after the treatment, 50 mg/kg oral on days D0, D1 and D2): 0 cysts per g faeces
Σ Giardia cyst excretion D4 (Giardia duodenalis [1]; group line Σ (6 dogs), D4, after the treatment, 50 mg/kg oral on days D0, D1 and D2): 135 cysts per g faeces
Σ Giardia cyst excretion D5 (Giardia duodenalis [1]; group line Σ (6 dogs), D5, after the treatment, 50 mg/kg oral on days D0, D1 and D2): 638 cysts per g faeces
Σ Giardia cyst excretion D6 (Giardia duodenalis [1]; group line Σ (6 dogs), D6, after the treatment, 50 mg/kg oral on days D0, D1 and D2): 339 cysts per g faeces
Σ Giardia cyst excretion D7 (Giardia duodenalis [1]; group line Σ (6 dogs), D7, after the treatment, 50 mg/kg oral on days D0, D1 and D2): 54 cysts per g faeces
Σ Giardia cyst excretion D8 (Giardia duodenalis [1]; group line Σ (6 dogs), D8, after the treatment, 50 mg/kg oral on days D0, D1 and D2): 399 cysts per g faeces
Σ Giardia cyst excretion D−1 (Giardia duodenalis [1]; group line Σ (6 dogs), day −1, before treatment, 50 mg/kg oral on days D0, D1 and D2): 37547 cysts per g faeces
Σ Giardia cyst excretion D−2 (Giardia duodenalis [1]; group line Σ (6 dogs), day −2, before treatment, 50 mg/kg oral on days D0, D1 and D2): 28220 cysts per g faeces
Σ Giardia cyst excretion D−3 (Giardia duodenalis [1]; group line Σ (6 dogs), day −3, before treatment, 50 mg/kg oral on days D0, D1 and D2): 49751 cysts per g faeces
Σ Giardia cyst excretion Day 3 to 8 (Giardia duodenalis [1]; group, after treatment, 50 mg/kg oral on days 0, 1 and 2): 261 cysts per g faeces
Σ Giardia cyst excretion Day: −3 to 0 (Giardia duodenalis [1]; group, before treatment, 50 mg/kg oral on days 0, 1 and 2): 44154 cysts per g faeces
Giardia cyst excretion D0 (Giardia duodenalis [1]; individual dogs, D0, day of treatment, 50 mg/kg oral on days D0, D1 and D2, 50 mg/kg): 60420 cysts per g faeces and 675 cysts per g faeces and 89880 cysts per g faeces and 86 cysts per g faeces and 103442 cysts per g faeces and 112084 cysts per g faeces
Giardia cyst excretion D1 (Giardia duodenalis [1]; individual dogs, D1, day of treatment, 50 mg/kg oral on days D0, D1 and D2, 50 mg/kg): 809 cysts per g faeces and 187 cysts per g faeces and 974 cysts per g faeces and 0 cysts per g faeces and 1261 cysts per g faeces and 2000 cysts per g faeces
Giardia cyst excretion D2 (Giardia duodenalis [1]; individual dogs, D2, day of treatment, 50 mg/kg oral on days D0, D1 and D2, 50 mg/kg): 741 cysts per g faeces and 0 cysts per g faeces (4×) and 527 cysts per g faeces
Giardia cyst excretion D3 (Giardia duodenalis [1]; individual dogs, D3, after the treatment, 50 mg/kg oral on days D0, D1 and D2): 0 cysts per g faeces
Giardia cyst excretion D4 (Giardia duodenalis [1]; individual dogs, D4, after the treatment, 50 mg/kg oral on days D0, D1 and D2, 50 mg/kg): 0 cysts per g faeces (4×) and 185 cysts per g faeces and 622 cysts per g faeces
Giardia cyst excretion D5 (Giardia duodenalis [1]; individual dogs, D5, after the treatment, 50 mg/kg oral on days D0, D1 and D2, 50 mg/kg): 229 cysts per g faeces and 0 cysts per g faeces (3×) and 2299 cysts per g faeces and 1299 cysts per g faeces
Giardia cyst excretion D6 (Giardia duodenalis [1]; individual dogs, D6, after the treatment, 50 mg/kg oral on days D0, D1 and D2, 50 mg/kg): 0 cysts per g faeces (3×) and 98 cysts per g faeces and 1842 cysts per g faeces and 93 cysts per g faeces
Giardia cyst excretion D7 (Giardia duodenalis [1]; individual dogs, D7, after the treatment, 50 mg/kg oral on days D0, D1 and D2, 50 mg/kg): 0 cysts per g faeces (4×) and 87 cysts per g faeces and 237 cysts per g faeces
Giardia cyst excretion D8 (Giardia duodenalis [1]; individual dogs, D8, after the treatment, 50 mg/kg oral on days D0, D1 and D2, 50 mg/kg): 517 cysts per g faeces and 0 cysts per g faeces (3×) and 975 cysts per g faeces and 903 cysts per g faeces
Giardia cyst excretion D−1 (Giardia duodenalis [1]; individual dogs, day −1, before treatment, 50 mg/kg oral on days D0, D1 and D2, 50 mg/kg): 25515 cysts per g faeces and 3472 cysts per g faeces and 37203 cysts per g faeces and 8528 cysts per g faeces and 91293 cysts per g faeces and 59273 cysts per g faeces
Giardia cyst excretion D−2 (Giardia duodenalis [1]; individual dogs, day −2, before treatment, 50 mg/kg oral on days D0, D1 and D2, 50 mg/kg): 10685 cysts per g faeces and 8278 cysts per g faeces and 1618 cysts per g faeces and 133 cysts per g faeces and 79689 cysts per g faeces and 68914 cysts per g faeces
Activity (Giardia duodenalis [2]; calculated activity on cyst excretion versus infected untreated control, day 1 to 8, single oral dose 50 mg/kg, 50 mg/kg): 90.4%
Σ Giardia cyst excretion D1 (Giardia duodenalis [2]; group line Σ (7 dogs), day 1 after treatment, 50 mg/kg oral on day D0): 1516 cysts per g faeces
Σ Giardia cyst excretion D2 (Giardia duodenalis [2]; group line Σ (7 dogs), day 2 after treatment, 50 mg/kg oral on day D0): 26 cysts per g faeces
Σ Giardia cyst excretion D3 (Giardia duodenalis [2]; group line Σ (7 dogs), day 3 after treatment, 50 mg/kg oral on day D0): 32 cysts per g faeces
Σ Giardia cyst excretion D4 (Giardia duodenalis [2]; group line Σ (7 dogs), day 4 after treatment, 50 mg/kg oral on day D0): 473 cysts per g faeces
Σ Giardia cyst excretion D5 (Giardia duodenalis [2]; group line Σ (7 dogs), day 5 after treatment, 50 mg/kg oral on day D0): 629 cysts per g faeces
Σ Giardia cyst excretion D6 (Giardia duodenalis [2]; group line Σ (7 dogs), day 6 after treatment, 50 mg/kg oral on day D0): 2523 cysts per g faeces
Σ Giardia cyst excretion D7 (Giardia duodenalis [2]; group line Σ (7 dogs), day 7 after treatment, 50 mg/kg oral on day D0): 2403 cysts per g faeces
Σ Giardia cyst excretion D8 (Giardia duodenalis [2]; group line Σ (7 dogs), day 8 after treatment, 50 mg/kg oral on day D0): 3127 cysts per g faeces
Σ Giardia cyst excretion D0 (Giardia duodenalis [2]; group line Σ (7 dogs), day of treatment, 50 mg/kg oral on day D0): 8996 cysts per g faeces
Σ Giardia cyst excretion D−1 (Giardia duodenalis [2]; group line Σ (7 dogs), day −1, before treatment, 50 mg/kg oral on day D0): 39966 cysts per g faeces
Σ Giardia cyst excretion D−2 (Giardia duodenalis [2]; group line Σ (7 dogs), day −2, before treatment, 50 mg/kg oral on day D0): 38482 cysts per g faeces
Σ Giardia cyst excretion D−3 (Giardia duodenalis [2]; group line Σ (7 dogs), day −3, before treatment, 50 mg/kg oral on day D0): 9762 cysts per g faeces
Σ Giardia cyst excretion Day 1 to 8 (Giardia duodenalis [2]; group, after treatment, 50 mg/kg oral once on day 0): 1341 cysts per g faeces
Σ Giardia cyst excretion Day −3 to 0 (Giardia duodenalis [2]; group, before treatment, 50 mg/kg oral once on day 0): 24302 cysts per g faeces
Giardia cyst excretion D1 (Giardia duodenalis [2]; individual dogs, day 1 after treatment, 50 mg/kg oral on day D0, 50 mg/kg): 504 cysts per g faeces and 4928 cysts per g faeces and 152 cysts per g faeces and 0 cysts per g faeces (2×) and 2636 cysts per g faeces and 2391 cysts per g faeces
Giardia cyst excretion D2 (Giardia duodenalis [2]; individual dogs, day 2 after treatment, 50 mg/kg oral on day D0, 50 mg/kg): 0 cysts per g faeces (6×) and 180 cysts per g faeces
Giardia cyst excretion D3 (Giardia duodenalis [2]; individual dogs, day 3 after treatment, 50 mg/kg oral on day D0, 50 mg/kg): 0 cysts per g faeces (6×) and 224 cysts per g faeces
Giardia cyst excretion D4 (Giardia duodenalis [2]; individual dogs, day 4 after treatment, 50 mg/kg oral on day D0, 50 mg/kg): 590 cysts per g faeces and 0 cysts per g faeces (2×) and 652 cysts per g faeces and 424 cysts per g faeces and 1451 cysts per g faeces and 193 cysts per g faeces
Giardia cyst excretion D5 (Giardia duodenalis [2]; individual dogs, day 5 after treatment, 50 mg/kg oral on day D0, 50 mg/kg): 1700 cysts per g faeces and 1094 cysts per g faeces and 0 cysts per g faeces (2×) and 137 cysts per g faeces and 1318 cysts per g faeces and 153 cysts per g faeces
Giardia cyst excretion D6 (Giardia duodenalis [2]; individual dogs, day 6 after treatment, 50 mg/kg oral on day D0, 50 mg/kg): 3693 cysts per g faeces and 2000 cysts per g faeces and 1201 cysts per g faeces and 353 cysts per g faeces and 0 cysts per g faeces and 4102 cysts per g faeces and 6315 cysts per g faeces
Giardia cyst excretion D7 (Giardia duodenalis [2]; individual dogs, day 7 after treatment, 50 mg/kg oral on day D0, 50 mg/kg): 8881 cysts per g faeces and 431 cysts per g faeces and 1873 cysts per g faeces and 608 cysts per g faeces and 191 cysts per g faeces and 4615 cysts per g faeces and 223 cysts per g faeces
Giardia cyst excretion D8 (Giardia duodenalis [2]; individual dogs, day 8 after treatment, 50 mg/kg oral on day D0, 50 mg/kg): 3294 cysts per g faeces and 517 cysts per g faeces and 14181 cysts per g faeces and 0 cysts per g faeces and 1621 cysts per g faeces and 1768 cysts per g faeces and 508 cysts per g faeces
Giardia cyst excretion D0 (Giardia duodenalis [2]; individual dogs, day of treatment, 50 mg/kg oral on day D0, 50 mg/kg): 4397 cysts per g faeces and 8456 cysts per g faeces and 0 cysts per g faeces and 375 cysts per g faeces and 19681 cysts per g faeces and 16419 cysts per g faeces and 13644 cysts per g faeces
Giardia cyst excretion D−1 (Giardia duodenalis [2]; individual dogs, day −1, before treatment, 50 mg/kg oral on day D0, 50 mg/kg): 1306 cysts per g faeces and 14238 cysts per g faeces and 2264 cysts per g faeces and 788 cysts per g faeces and 189275 cysts per g faeces and 45725 cysts per g faeces and 26163 cysts per g faeces
Giardia cyst excretion D−2 (Giardia duodenalis [2]; individual dogs, day −2, before treatment, 50 mg/kg oral on day D0, 50 mg/kg): 907 cysts per g faeces and 923 cysts per g faeces and 5897 cysts per g faeces and 905 cysts per g faeces and 186750 cysts per g faeces and 45672 cysts per g faeces and 28322 cysts per g faeces
